Source: US9394544B2, “Ameliorating oxidative stress in neurodegenerative disease via Nox1 targeting” (University of Central Florida Research Foundation, Inc., priority 2013, dated 2016)

Key:
Nox1 = assay: Nuclear localization of Nox1-EGFP in N27 cells (confocal microscopy); type: cell-based, rat; settings: N27 cells expressing Nox1-EGFP; 6-OHDA 50 μM 6 h, rotenone 5 μM 18 h
Description: The observation that Nox1 was induced by a variety of oxidative stimuli in vitro led one to test Nox1 expression in the rat substantia nigra DA (SNDA) neurons administered with 6-OHDA. […] Neither astrocytes nor microglia expressed Nox1, as verified by co-immunostaining of Nox1 with GFAP (astrocytes) or CD11b (microglia) (FIG. 3B). Increased Nox1 transcript was found in the SN as shown by in situ hybridization (FIG. 3C). […] As early as 3 days post 6-OHDA injection, Nox1 expression was increased in the nucleus and in the cytoplasm of DA neurons (FIG. 4A). […] Nuclear expression of the Nox1/Rac1 complex was further analyzed in N27 cells after treatment with 6-OHDA. First, activated Rac1 was detected by immunoprecipitation of nuclear extracts of N27 cells after a 24 h treatment with 6-OHDA. […] Next, it was established that N27 cells stably expressing Nox1 tagged with EGFP at the C-terminus. […] To examine whether nuclear translocation of Nox1 in dopaminergic cells is observed under different conditions that cause dopaminergic neuronal death, mitochondrial respiratory complex inhibitor, rotenone, was tested.

rat SN = assay: Immunohistochemistry of SN sections, PQ rat model; type: in vivo
Method: The experiments were performed on rats, in accordance with the National Institutes for Health Guide for the Care and Use of Laboratory Animals. All procedures were approved by the local Animal Care and Use Committee. Male Wistar rats (8-10 weeks; Charles River) were maintained in a temperature/humidity-controlled environment under a 12 h light/dark cycle with ad libitum access to food and water. As depicted in FIG. 13A, each animal received four intraperitoneal injections, separated by 1 d, of either vehicle (saline) or PQ (10 mg/kg body weight; b.w.), according to a previously published dose (Manning-Bog et al., 2002; Harraz et al., 2008; Cristovao et al., 2009). All animals were weighed at day 1 and 12. In the studies using the paradigm depicted in FIG. 13A, 4 weeks before starting PQ intraperitoneal injection, animals were stereotaxically injected with various viral constructs at the right SN using the following coordinates: mediolateral, +2.0; anteroposterior, −5.3; dorsoventral, −6.8. Animals were organized into four groups: vector+vehicle: stereotaxically injected with adeno-associated virus (AAV) particles containing a green fluorescent protein (GFP) vector (vector) and then intraperitoneally injected with saline (vehicle) (n=10); vector+PQ: stereotaxically injected with vector and then intraperitoneally injected with PQ (n=10); shNox1+PQ: stereotaxically injected with AAV particles harboring Nox1 shRNA and then intraperitoneally injected with PQ (n=10); shNox1+vehicle: stereotaxically injected with Nox1 shRNA and then intraperitoneally injected with vehicle (n=8). AAV containing GFP vector was used as a negative control. Five days after the last PQ intraperitoneal injection, animals were killed. For Western blot analysis, brains were collected and total protein lysates from SN were prepared. For immunohistochemical analysis, animals were intracardially perfused before collecting the brains.
Following perfusion with saline and 4% PFA in PBS, brains were removed, and forebrain and midbrain blocks were immersion fixed in 4% PFA and cryoprotected in sucrose. Serial coronal sections (40 μm) were cut on a cryostat, collected in cryopreservative solution, and stored at −20° C. For immunolabeling studies, sections were incubated at room temperature with blocking solution for 1 h (5% FBS and 0.3% Triton X-100 in PBS, pH 7.5) and then with primary antibodies overnight. Finally, sections were incubated with secondary antibodies in blocking solution at room temperature for 1 h. The primary antibodies used were mouse anti-TH (1:10,000), rabbit anti-Nox1 (1:500), goat anti-4-HNE (1:700), mouse anti-ubiquitin (1:250), rabbit anti-α-synuclein (1:150), and rabbit anti-A11 oligomers (2.5 μg/ml). The secondary antibodies were biotinylated anti-rabbit IgG, anti-goat IgG, or anti-rat IgG (1:200). The staining procedure was performed as indicated by the manufacturer of the Vectastain ABC kit and the reaction product visualized using 3,3′-diaminobenzidine (DAB) reagent in TBS containing 0.02% H2O2. The numbers of TH-immunoreactive cells in the SN were counted using an optical fractionator. Analysis was performed using a system consisting of a Nikon Eclipse E600 microscope (Morrell Instruments) equipped with a computer-controlled LEP BioPoint motorized stage (Ludl Electronic Products), a DEI-750 video camera (Meyer Instruments), a Dell Dimension 4300 computer (Dell), and the Stereo Investigator (v. 4.35) software program (Microbrightfield).
Immunocytochemistry for proteinase K (PK)-resistant α-synuclein was performed based on a methodology reported previously (Neumann et al., 2002), with some modifications. Briefly, fixed cells were permeabilized with 0.1% Tween 20 and then digested for 30 min at 37° C. with PK (10 μg/ml). PK was inactivated with 3 M guanidine thiocyanate in 10 mM Tris-HCl solution for 10 min. Between each step, cells were washed gently three times with PBS. […]

| SMILES | nuclear localization of Nox1 (Nox1) | immunoreactivity of A11 oligomers in the SN (rat SN; PQ, PQ with Nox1 knocked down) | α-Synuclein immunoreactivity in the SN (rat SN; rats, PQ vs vehicle) | 4-HNE immunoreactivity (lipid peroxidation) in the SN (rat SN; rats, PQ vs vehicle, Nox1 shRNA+PQ vs PQ) | Nox1 immunoreactivity in the SN (rat SN; rats, PQ vs vehicle, Nox1 shRNA+PQ vs vector+PQ) | PK-resistant α-synuclein immunoreactivity in the rat SN (rat SN; vector+PQ vs vector+vehicle, Nox1 shRNA+PQ) | ubiquitin immunoreactivity in the rat SN (rat SN; vector+PQ, Nox1 shRNA+PQ) |
| --- | --- | --- | --- | --- | --- | --- | --- |
| NCCc1cc(O)c(O)cc1O [6-OHDA, 6-hydroxydopamine] | translocation of Nox1-EGFP into the nucleus | – | – | – | – | – | – |
| C[n+]1ccc(-c2cc[n+](C)cc2)cc1 [PQ, paraquat] | – | significant increase | increased | increase | upregulation | increase | significant increase |
